Assays:
olfactory cells = assay: Responsiveness of 2,740 isolated olfactory cells to odor molecules (fura-2 calcium fluorescence); assay type: cell-based, mouse; details: for number of olfactory cells responding, with higher sensitivity than others and to the same extent, to both pulegone and (−)menthone / number of olfactory cells responding, with the highest sensitivity and to the same extent, to both R(−)carvone and S(+)carvone / number of olfactory cells sensitively and selectively responding: of 2,740 olfactory cells investigated
Text: (§1) It is reported that, in mice, the olfactory receptor is expressed is olfactory cells and detects and identifies odor molecules (Cell 96: 713-723 (1999) and the like). It is reported that there are four zones indicated by No. 1 to 4 in order from the dorsum to the ventral olfactory epithelium wherein olfactory cells are distributed and each olfactory receptor is limitedly expressed in any one of the four zones (Science 286 (5440): 706-711 (1999) and the like). As it is estimated by gene analysis estimates that there are about 1,000 types of olfactory receptors, the responsiveness to specific odor molecules of the olfactory cells sampled in statistically significant number from the four zones is equivalent. Therefore, in the present invention, the responsiveness of 2,740 olfactory cells, about 2.7 times as many as 1,000 specific types of cells, was investigated. It cannot be declared that the statistical significance is maintained for all zones, as the number of types of olfactory receptor included in each zone is not clear. […] As a result, 4 olfactory cells sensitively and selectively responding to R(−)carvone of spearmint odor of a typical olfactory source, 18 olfactory cells sensitively and selectively responding to S(+)carvone of caraway odor of another typical olfactory source, 3 olfactory cells responding, with higher sensitivity than others and to the same extent, to both pulegone and (−)menthone commonly having mint odor of another typical olfactory source, and 3 olfactory cells responding, with the highest sensitivity and to the same extent, to both R(−)carvone and S(+)carvone commonly having sweet odor of another typical olfactory source were found. Respectively, 2, 2, 1 and 1 type(s) of genes identified by RT-PCR determined from a single cell among such olfactory cells were found and described in the present invention.
The olfactory epithelium was quickly excised from a mouse euthanized by decapitation under anesthesia and divided into small pieces. These pieces were trypsinized to cleave intercellular junctions, and a sample of viable multiple mouse olfactory cells isolated from cells adhered to a cover slip by softly putting the treated pieces onto the cover slip taking care not to rupture them. Calcium-sensitive fluorescent dye fura-2 was intracellularly loaded on the sample, a solution of each odor molecule was administered, and the transient increase in intracellular calcium concentration triggered by the olfactory cells responding was detected by measuring and analysing the change in fura-2 fluorescence intensity within the cell using a microscope (Nikon), high-sensitive SIT video camera and image analysis device Argus-50 (Hamamatsu Photonics for both of the latter two), allowing the analysis individual cells response to specific odor molecules. Olfactory cell with a confirmed response were individually sampled with a micropipette containing 4 μl of cell lysis mix (1×MMLV buffer (GIBCO BRL), 0.5% NP-40, 290 U/ml RNA guard (Pharmacia), 300 U/ml Prime RNase inhibitor (Eppendorf), 10 μM each dNTP, 200 ng/ml pd(T)25-30) under microscopy and moved into a tube for PCR. After the tube was incubated at 65° C. for 1 minute, 0.5 μl of RT mixed solution containing 50 U of MMLV reverse transcriptase (GIBCO BRL) and 0.5 U of AMV reverse transcriptase (GIBCO BRL) was added to each tube, followed by reverse-transcription at 37° C. for 30 minutes and treatment at 65° C. for 10 minutes prior to the termination of reaction. To form polyA tails, 5 μl of 2×TdT buffer (GIBCO BRL), 1.5 mM DATP, and 3 U/μl Terminal deoxynucleotidyl transferase (GIBCO BRL) were added, followed by incubation at 37° C. for 15 minutes and treatment at 65° C. for 10 minutes prior to the termination of reaction. […]

[1] = system: olfactory receptor car-b85; assay: Odor response of olfactory cell expressing olfactory receptor car-b85 (fura-2 calcium fluorescence); assay type: cell-based, mouse; details: car-b85, odor quality Mint; for Response at 1 μM: responders at 1 μM with rank order; for Response at 10 μM: responders at 10 μM
Text: It is reported that, in mice, the olfactory receptor is expressed is olfactory cells and detects and identifies odor molecules (Cell 96: 713-723 (1999) and the like). It is reported that there are four zones indicated by No. 1 to 4 in order from the dorsum to the ventral olfactory epithelium wherein olfactory cells are distributed and each olfactory receptor is limitedly expressed in any one of the four zones (Science 286 (5440): 706-711 (1999) and the like). As it is estimated by gene analysis estimates that there are about 1,000 types of olfactory receptors, the responsiveness to specific odor molecules of the olfactory cells sampled in statistically significant number from the four zones is equivalent. Therefore, in the present invention, the responsiveness of 2,740 olfactory cells, about 2.7 times as many as 1,000 specific types of cells, was investigated. It cannot be declared that the statistical significance is maintained for all zones, as the number of types of olfactory receptor included in each zone is not clear. […] Respectively, 2, 2, 1 and 1 type(s) of genes identified by RT-PCR determined from a single cell among such olfactory cells were found and described in the present invention. The olfactory epithelium was quickly excised from a mouse euthanized by decapitation under anesthesia and divided into small pieces. These pieces were trypsinized to cleave intercellular junctions, and a sample of viable multiple mouse olfactory cells isolated from cells adhered to a cover slip by softly putting the treated pieces onto the cover slip taking care not to rupture them. Calcium-sensitive fluorescent dye fura-2 was intracellularly loaded on the sample, a solution of each odor molecule was administered, and the transient increase in intracellular calcium concentration triggered by the olfactory cells responding was detected by measuring and analysing the change in fura-2 fluorescence intensity within the cell using a microscope (Nikon), high-sensitive SIT video camera and image analysis device Argus-50 (Hamamatsu Photonics for both of the latter two), allowing the analysis individual cells response to specific odor molecules. […] The olfactory receptors with high sensitivity to specific odor qualities are shown as follows.

[2] = system: olfactory receptor car-b161; assay: Odor response of olfactory cell expressing olfactory receptor car-b161 (fura-2 calcium fluorescence); assay type: cell-based, mouse; details: car-b161, odor quality Caraway; responders at 10 μM
Text: (§2) It is reported that, in mice, the olfactory receptor is expressed is olfactory cells and detects and identifies odor molecules (Cell 96: 713-723 (1999) and the like). It is reported that there are four zones indicated by No. 1 to 4 in order from the dorsum to the ventral olfactory epithelium wherein olfactory cells are distributed and each olfactory receptor is limitedly expressed in any one of the four zones (Science 286 (5440): 706-711 (1999) and the like). […] Respectively, 2, 2, 1 and 1 type(s) of genes identified by RT-PCR determined from a single cell among such olfactory cells were found and described in the present invention.
(§3) The olfactory epithelium was quickly excised from a mouse euthanized by decapitation under anesthesia and divided into small pieces. […] Calcium-sensitive fluorescent dye fura-2 was intracellularly loaded on the sample, a solution of each odor molecule was administered, and the transient increase in intracellular calcium concentration triggered by the olfactory cells responding was detected by measuring and analysing the change in fura-2 fluorescence intensity within the cell using a microscope (Nikon), high-sensitive SIT video camera and image analysis device Argus-50 (Hamamatsu Photonics for both of the latter two), allowing the analysis individual cells response to specific odor molecules. […]

[3] = system: olfactory receptor car-c5; assay: Odor response of olfactory cell expressing olfactory receptor car-c5 (fura-2 calcium fluorescence); assay type: cell-based, mouse; details: car-c5, odor quality Spearmint; for Response at 10 μM: responders at 10 μM
Text: (§4) It is reported that, in mice, the olfactory receptor is expressed is olfactory cells and detects and identifies odor molecules (Cell 96: 713-723 (1999) and the like). It is reported that there are four zones indicated by No. 1 to 4 in order from the dorsum to the ventral olfactory epithelium wherein olfactory cells are distributed and each olfactory receptor is limitedly expressed in any one of the four zones (Science 286 (5440): 706-711 (1999) and the like). As it is estimated by gene analysis estimates that there are about 1,000 types of olfactory receptors, the responsiveness to specific odor molecules of the olfactory cells sampled in statistically significant number from the four zones is equivalent. Therefore, in the present invention, the responsiveness of 2,740 olfactory cells, about 2.7 times as many as 1,000 specific types of cells, was investigated. It cannot be declared that the statistical significance is maintained for all zones, as the number of types of olfactory receptor included in each zone is not clear. […] Respectively, 2, 2, 1 and 1 type(s) of genes identified by RT-PCR determined from a single cell among such olfactory cells were found and described in the present invention.
as §3

[4] = system: olfactory receptor car-n266; assay: Odor response of olfactory cell expressing olfactory receptor car-n266 (fura-2 calcium fluorescence); assay type: cell-based, mouse; details: car-n266, Sweet odor; for Response at 1 μM: responders at 1 μM; for Response at 10 μM: responders at 10 μM
Text: as §1, §3

[5] = system: olfactory receptor car-b153; assay: Odor response of olfactory cell expressing olfactory receptor car-b153 (fura-2 calcium fluorescence); assay type: cell-based, mouse; details: car-b153, odor quality Caraway; responders at 10 μM
Text: as §2, §3

[6] = system: olfactory receptor car-n272; assay: Odor response of olfactory cell expressing olfactory receptor car-n272 (fura-2 calcium fluorescence); assay type: cell-based, mouse; details: car-n272, odor quality Spearmint; for Response at 10 μM: odor molecules listed are those giving a response at 10 μM
Text: as §4, §3

olfactory receptor C257 = assay: Response characteristics of olfactory receptor C257 expressed in cultured cell CHO; assay type: cell-based; details: sensitivity one order of magnitude lower than in olfactory receptor cell (FIG. 16)
Text: Next, in this Example, response characteristics of olfactory receptor C257 were studied. A) is the case wherein it is expressed in olfactory receptor cell, and B) is the case wherein it is expressed in cell established and cultured cell CHO. […] However, response to sCa was not apparent (FIG. 16). […] Regarding discrimination, characteristics of the olfactory receptor can be considered to be expressed, independent of the cell type. However, regarding sensitivity and response starting time, they are change with regards to all odor molecules depending on the cell type. Therefore, it is necessary to evaluate the stimulation quality, paying attention to this point.

[7] = of about 70-100 kinds of receptors
[8] = 1 μM, cells selective for the respective carvone (FIG. 8)

C=C(C)C1CC=C(C)C(=O)C1 (stereo not drawn) [carvone]
number of cells responding equally to both carvones at 1 μM (olfactory cells; 1 μM): three
kinds of olfactory receptors functioning to identify carvone (olfactory cells; corresponding to about 9.6% of about 1,000 kinds): 70-100 kinds
olfactory cells responding to carvone, share of the total (olfactory cells; of 2,740 olfactory cells): 9.6%
number of olfactory cells responding to carvone (olfactory cells; of 2,740 olfactory cells, carvone = both S(+)carvone and R(−)carvone): 263
fraction of the carvone-identifying olfactory receptors responding to both carvones equally with relatively high sensitivity (olfactory cells; [7]): about ⅖

CC(C)[C@@H]1CC[C@@H](C)CC1=O [mn, (2S,5R)-2-isopropyl-5-methylcyclohexanone]
number of olfactory cells responding, with higher sensitivity than others and to the same extent, to both pulegone and (−)menthone (olfactory cells): 3 olfactory cells
Response at 1 μM [1]: pu, mn > sCa, rCa
Response at 10 μM [1]: mn

C=C(C)[C@H]1CC=C(C)C(=O)C1 [sCa, S(+)-5-isopropenyl-2-methyl-2-cyclohexenon]
Response at 10 μM [2]: sCa
number of selective cells responding at 1 μM (olfactory cells; [8]): two
number of selective cells responding at 10 μM (olfactory cells; 10 μM, cells selective for the respective carvone (FIG. 8)): seventeen
number of olfactory cells responding, with the highest sensitivity and to the same extent, to both R(−)carvone and S(+)carvone (olfactory cells): 3 olfactory cells
number of olfactory cells sensitively and selectively responding (olfactory cells): 18 olfactory cells
fraction of the carvone-identifying olfactory receptors responding with relatively high sensitivity (olfactory cells; [7]): about ⅕
Response at 10 μM [3]: sCa
Response at 1 μM [1]: pu, mn > sCa, rCa
Response at 10 μM [1]: sCa
Response at 1 μM [4]: sCa
Response at 10 μM [4]: sCa
Response at 10 μM [5]: sCa
Response at 10 μM [6]: sCa
response of olfactory receptor C257 when expressed in CHO (olfactory receptor C257): not apparent

C=C(C)[C@@H]1CC=C(C)C(=O)C1 [rCa, R(−)-5-isopropenyl-2-methyl-2-cyclohexenon]
number of selective cells responding at 1 μM (olfactory cells; [8]): four
number of olfactory cells responding, with the highest sensitivity and to the same extent, to both R(−)carvone and S(+)carvone (olfactory cells): 3 olfactory cells
number of olfactory cells sensitively and selectively responding (olfactory cells): 4 olfactory cells
fraction of the carvone-identifying olfactory receptors responding with relatively high sensitivity (olfactory cells; [7]): about ⅕
Response at 1 μM ([3]; responders at 1 μM): rCa
Response at 10 μM [3]: rCa
Response at 1 μM [1]: pu, mn > sCa, rCa
Response at 10 μM [1]: rCa
Response at 1 μM [4]: rCa
Response at 10 μM [4]: rCa
Response at 1 μM ([6]; odor molecules listed are those giving a response at 1 μM): rCa
Response at 10 μM [6]: rCa
response of olfactory receptor C257 when expressed in CHO (olfactory receptor C257): high sensitivity could be confirmed

C=C(C)C1CCC(C)CC1O (stereo not drawn) [ip, 2-isopropenyl-5-methylcyclohexanol]
Response at 10 μM [1]: ip

CC(C)=C1CC[C@@H](C)CC1=O [pu, (R)-p-menth-4(8)-en-3-one]
number of olfactory cells responding, with higher sensitivity than others and to the same extent, to both pulegone and (−)menthone (olfactory cells): 3 olfactory cells
Response at 1 μM [1]: pu, mn > sCa, rCa
Response at 10 μM [1]: pu

From patent publication US20070054266A1, “Chemical sensor system” (NATIONAL INSTITUTE of ADVANCED INDUSTRIAL SCIENCE and …, priority 2002, published 2007)
